The conditions of data set [1]: microsomes, 1 h, 1.5 µM.
Description: Metabolic stability in liver microsomes (unknown origin) at 1.5 uM measured upto 60 mins in presence of NADPH by LC-MS/MS analysis
The conditions of data set [2]: human, plasma, 1 h.
Description: Metabolic stability in human plasma measured upto 60 mins in presence of NADPH by LC-MS/MS analysis
Data set [3] is described as follows: Half life in ICR mouse at 1 mg/kg, iv measured upto 24 hrs by LC-MS/MS analysis. The format is ADME, organism-based. The conditions noted are these: in vivo.
The nature of data set [4]: Tmax in ICR mouse at 1 mg/kg, iv measured upto 24 hrs by LC-MS/MS analysis. As to conditions: in vivo. The format is ADME, organism-based.
Data set [5] is described as follows: Cmax in ICR mouse at 1 mg/kg, iv measured upto 24 hrs by LC-MS/MS analysis. As to conditions: in vivo. The format is ADME, organism-based.
A short description of data set [6]: AUC(0 to 24 hrs) in ICR mouse at 1 mg/kg, iv measured upto 24 hrs by LC-MS/MS analysis. The class given is ADME, organism-based. As to conditions: in vivo.
Data set [7] can be described thus: AUCinfinity in ICR mouse at 1 mg/kg, iv measured upto 24 hrs by LC-MS/MS analysis. The format is ADME, organism-based. As to conditions: in vivo.
Data set [8] is described as follows: MRT(0 to t) in ICR mouse at 1 mg/kg, iv measured upto 24 hrs by LC-MS/MS analysis. As to conditions: in vivo. The class given is ADME, organism-based.
A short description of data set [9]: MRTinfinity in ICR mouse at 1 mg/kg, iv measured upto 24 hrs by LC-MS/MS analysis. The conditions noted are these: in vivo. The format is ADME, organism-based.
Data set [10] in a line: Half life in ICR mouse at 10 mg/kg, po measured upto 24 hrs by LC-MS/MS analysis. The class given is ADME, organism-based. As to conditions: in vivo.
Data set [11] in a line: Tmax in ICR mouse at 10 mg/kg, po measured upto 24 hrs by LC-MS/MS analysis. The class given is ADME, organism-based. As to conditions: in vivo.
Data set [12] in a line: Cmax in ICR mouse at 10 mg/kg, po measured upto 24 hrs by LC-MS/MS analysis. As to conditions: in vivo. The format is ADME, organism-based.
A short description of data set [13]: AUC(0 to 24 hrs) in ICR mouse at 10 mg/kg, po measured upto 24 hrs by LC-MS/MS analysis. The class given is ADME, organism-based. As to conditions: in vivo.
Data set [14] is described as follows: AUCinfinity in ICR mouse at 10 mg/kg, po measured upto 24 hrs by LC-MS/MS analysis. As to conditions: in vivo. The class given is ADME, organism-based.
Data set [15] is described as follows: MRT(0 to t) in ICR mouse at 10 mg/kg, po measured upto 24 hrs by LC-MS/MS analysis. As to conditions: in vivo. The class given is ADME, organism-based.
Data set [16] in a line: MRTinfinity in ICR mouse at 10 mg/kg, po measured upto 24 hrs by LC-MS/MS analysis. The class given is ADME, organism-based. As to conditions: in vivo.
A short description of data set [17]: Oral bioavailability in ICR mouse at 10 mg/kg measured upto 24 hrs by LC-MS/MS analysis. The class given is ADME, organism-based. As to conditions: in vivo.
The nature of data set [18]: Drug concentration in ICR mouse at 10 mmg/kg, po measured after 0.5 to 24 hrs. The class given is ADME, organism-based. The conditions noted are these: in vivo, 10 mg/kg, time 0.5-24 hrs.

The results in this text go back to ChEMBL document CHEMBL6127061, “Discovery of orally bioavailable ALK PROTACs based ceritinib against ALK positive cancers” (Eur J Med Chem, 2024).

The term half-life denotes how long it takes for the measured level to halve. Read a high half-life as slow loss. As a reminder, the Tmax is the time at which the peak concentration occurs. A word on the Cmax: it is the maximum level reached in the sampled fluid or tissue. The AUC(0-t) is exposure summed from dosing to a finite time, without extrapolation to infinity. In general, AUC(0-inf) refers to total exposure, with the tail of the curve extrapolated. Read a low AUC(0-inf) as low exposure. Broadly, the MRT last is a mean duration of stay, worked out from the concentration-time curve. Usually MRT inf stands for a mean duration of stay, worked out from the concentration-time curve. By bioavailability is commonly meant dose-corrected exposure relative to a reference, in per cent.

Consider `Cc1cc(Nc2ncc(Cl)c(Nc3ccccc3S(=O)(=O)C(C)C)n2)c(OC(C)C)cc1C1CCN(C2CCN(C3CN(c4ccc5c(c4)C(=O)N(C4CCC(=O)NC4=O)C5=O)C3)CC2)CC1` (stereo not given), for which the Stability entry in [1] and in data set [2] was “Stable” each time.

As to `Cc1cc(Nc2ncc(Cl)c(Nc3ccccc3S(=O)(=O)C(C)C)n2)c(OC(C)C)cc1C1CCN(C2CN(C3CCN(c4ccc5c(c4)C(=O)N(C4CCC(=O)NC4=O)C5=O)CC3)C2)CC1` (stereo not given), the half-life was 10.8 h in data set [3] and 11.2 h in data set [10]. Moreover, the time to peak (Tmax) worked out at 4.98 min in data set [4] and 4 h in data set [11]. In addition, the Cmax in data set [5] is 3000 ng/mL; in data set [12], 1710 ng/mL. The area under the curve AUC(0-t) at 24 h turned out to be 17600 ng·h/mL in [6] and 23900 ng·h/mL in data set [13]. For the same compound, the total exposure AUC(0-inf) in [7] came out at 21700 ng·h/mL; in data set [14] it was 30800 ng·h/mL. Moreover, the MRT last at 24 h worked out at 7.19 h in data set [8] and 8.61 h in data set [15]. The MRT inf in data set [9] is 13.2 h; in [16], 15.7 h. The bioavailability in data set [17] amounted to 14.2%. Also, the Drug uptake in data set [18] was 400 ng/mL. The Stability entry in [1] and in [2] was “Stable” throughout.
